# Data from US4243678A, “Acylhydrocarbylaminoalkanoic acids, compositions and uses” (Byk Gulden Lomberg Chemische Fabrik GmbH, priority 1977, dated 1981).
# Read-outs that look alike come from different tables or passages of the source.
# Experiments:
# liver damage by CCl4 = assay: Antihepatotoxic effect: duration of hexobarbital sleep of the rat after liver damage by CCl4; settings: Rattus norvegicus, po; for ED25: read-out: ED25 antihepatotoxic effect (shortens hexobarbital narcosis by 25%); for ED50: read-out: ED50 antihepatotoxic effect (shortens hexobarbital narcosis by 50%)
# Method: (§1) The compounds to be tested are administered 1 hour prior to the administration of CCl4 orally in a liquid volume of 10 ml/kg.
# (§2) The antihepatotoxic effect of the compounds to be tested (sodium salts in aqueous solution) is determined by the reduction of the prolongation of sleeping period caused by the CCl4 liver cell damage in the groups treated, as compared with the prolongation of the sleeping period of the CCl4 control group (=100%). […]
# [1] = as above; settings: rat, in vivo
# Method: as §1, §2
# [2] = system: glucose formation from lactate and pyruvate in isolated perfused liver; assay: Inhibition of the formation of glucose from lactate and pyruvate in the isolated perfused rat liver; parameters: species or system rat (male Sprague-Dawley); settings: for Glucose formation, % change: isolated perfused liver of fasting rats; for ED50 inhibition of formation of glucose from lactate and pyruvate: from 4 concentrations, 0.02 to 1.00 mmol/liter
# Method: For this purpose young male Sprague-Dawley rats (160 to 200 g) are used. The rats are kept in cages of up to 5 animals in a temperature-controlled room (23° C.) with a fixed day/night rhythm (12/12 hours).
# Food is withheld from the animals for from 20 to 22 hours prior to the operation. They are allowed to take water ad lib. The operation and the perfusion of the liver are carried out using the technique of R. Scholz et al. [Eur. J. Biochem. 38 (1973) 64 to 72]. The perfusion liquid used is Krebs-Henseleit bicarbonate buffer (pH 7.4), which is saturated with an oxygen/carbon dioxide mixture (95/5) and contains 1.6 mmol/liter of L-lactate and 0.2 mmol/liter of pyruvate. The perfusion liquid is pumped into the liver via a cannula inserted into the portal vein. The effluent perfusion liquid is collected via a cannula inserted into the Vena cava. The liver is perfused for about 2 hours. The test compounds are infused for 16 minutes each from the 32nd to the […] after the perfusion in increasing concentrations (0.02 to 1.00 mmol/liter).
# Samples of the effluent perfusion liquid are collected at one-minute intervals and analyzed for glucose, lactate and pyruvate (using standard enzymatic methods). The percentages shown in Table VIII relate to the condition occurring before and after the administration of the compounds, the changes caused solely by lactate and pyruvate being set as being equal to 100%.
# [3] = Determination of toxicity (lethal action on the mouse after intraperitoneal application); assay type: in vivo; settings: in vivo, ip
# Method: The toxicity investigations are carried out on female NMRI mice (body weight 22 to 26 g). The animals (5 animals per dose) are given food and water ad lib. Different doses of the substances are administered intraperitoneally. The duration of observation is 14 days. The LD50, i.e. the dose at which 50% of the animals die, is determined graphically from the dose/effect curve.
# pancreatic secretion = assay: Influence on pancreatic secretion of the narcotized rat; assay type: in vivo, rat (male Sprague-Dawley); settings: 0.5 h, narcotized rat, i.d., liquid volume
# Excerpt: (§3) Male Sprague-Dawley rats (body weight from 250 to 300 g) are narcotized with 1.2 g/kg urethane i.m. Then the abdominal cavity is opened medially, the bile duct is ligatured shortly above the place where it leads into the duodenum and also near to the hepatic duct, and both sections are catheterized towards the liver.
# (§4) As in the rat all the pancreatic ducts lead out into the central section of the bile duct; it is possible in this way to discharge the pancreatic secretion separately from the distal (ligatured) section and the bile separately from the proximal section of the bile duct.
# (§5) The quantities of pancreatic juice and bile juice obtained are measured at intervals of 30 minutes over a period from 2 hours before to 3 hours after the intraduodenal (V. jugularis externa) administration of the compounds to be tested (quantity of liquid administered 5 ml/kg).
# (§6) The body temperature of the animals is maintained at 36° to 38° C. by means of electric blankets and radiation; the temperature is monitored rectally.
# (§7) The liquid volumes of the 30-minute fractions after the administration of the substance are related in each case to the quantity of bile or pancreatic juice secreted prior to the application of the substance (=100%, mean of the last two measurements). The maximum percentage increase in the pancreatic or bile secretion is represented in dependence upon dose, and from this the ED50 is determined by interpolation.
# [4] = as above; assay type: in vivo, rat (male Sprague-Dawley); settings: in vivo, LD50 mouse i.p. / ED50 rat i.d.
# Excerpt: as §3, §4, §5, §6, §7
# [5] = Antiulcerogenic (stomach-protective) action, pylorus ligature and acetylsalicylic acid; assay type: in vivo, rat (female); settings: in vivo, LD50 mouse i.p. / ED50 rat i.d.
# Method: (§8) The ulcer provocation is carried out on rats which have been made to fast for 24 hours (female, 180 to 200 g) by ligature of the pylorus (under ether narcosis) and the oral application of 100 mg/10 ml/kg acetylsalicylic acid. The administration of the substances was carried out intraduodenally (2.5 ml/kg) immediately after the ligature of the pylorus. The closure of the wound was carried out by means of Michel clamps. 4 hours after this, the animals were autopsied (while inebriated with ether) by dislocation of the atlas, and the stomach was resected. The stomach, opened longitudinally, is fixed on a cork board and, using a stereomicroscope with an enlargement of 10×, the number and size (=diameter) of any ulcers present were determined. The product of the degree of severity (according to the following scale of points) and the number of ulcers was used as the individual ulcer index.
# (§9) As a measure of antiulcerogenic effect the reduction in the mean ulcer index of each treated group, as compared with that of the control group (=100%), was used.
# stomach ulcer = assay: as above; assay type: in vivo, rat (female); settings: 4 h, rat, intraduodenally, read-out: ED50 antiulcerogenic action (dose which reduces the mean ulcer index by 50%)
# Method: as §8, §9
# [6] = 0.2 mmole/liter in the perfusate, Table VIII
# [7] = 30 min fraction, Table VII, read-out: ED50 pancreatic secretion (dose which brings about an increase in pancreatic secretion of a maximum of 50%)
# [8] = Table VII, read-out: TQ [LD50/ED50], pancreatic secretion
# [9] = Table IV, read-out: TQ (LD50/ED50), antiulcerogenic action
# [10] = 30 minute fraction, Table X, read-out: ED50 pancreatic secretion (dose which brings about an increase in pancreatic secretion by a maximum of 50%)
# [11] = Table X, read-out: TQ LD50/ED50, pancreatic secretion
# [12] = TQ LD50/ED25, antihepatotoxic effect, LD50 mouse i.p. / ED25 rat p.o., Table XI
# [13] = TQ LD50/ED50, antihepatotoxic effect, LD50 mouse i.p. / ED50 rat p.o., Table XI
# [14] = 0.2 mmol/liter in the perfusate, Table XIII
# [15] = Table IX, read-out: TQ LD50/ED50, antiulcerogenic action
smiles,measurement,setting,value
"O=C(O)CCCCN(C(=O)c1ccc(Cl)cc1)c1ccccc1-c1ccccc1 [Serial No. 28, 5-[p-chloro-N-(biphenyl-2-yl)benzamido]valeric acid]",ED25,liver damage by CCl4,3 mg/kg
same,ED50,liver damage by CCl4,12 mg/kg
same,selectivity ratio,"[1]; TQ LD50/ED25, antihepatotoxic effect, LD50 mouse i.p. / ED25 rat p.o., Table V",46.7
same,selectivity ratio,"[1]; TQ LD50/ED50, antihepatotoxic effect, LD50 mouse i.p. / ED50 rat p.o., Table V",11.7
same,"Glucose formation, % change",[2]; [6],-89%
same,ED50 inhibition of formation of glucose from lactate and pyruvate,[2]; Table VIII,25 µg/mL
same,LD50 at 336 h,"[3]; mouse i.p., Table V",140 mg/kg
"O=C(O)CCCCCN(C(=O)c1ccc(Cl)cc1Cl)c1ccccc1-c1ccccc1 [Serial No. 29, 6-[2,4-dichloro-N-(biphenyl-2-yl)benzamido]caproic acid]",ED50,pancreatic secretion; [7],1.7 mg/kg
same,selectivity ratio,[4]; [8],~147
same,"Glucose formation, % change",[2]; [6],-93%
same,ED50 inhibition of formation of glucose from lactate and pyruvate,[2]; Table VIII,23 µg/mL
same,LD50 at 336 h,"[3]; mouse i.p., Table VII",~250 mg/kg
"O=C(O)CCCCN(C(=O)c1ccccc1O)c1ccccc1-c1ccccc1 [Serial No. 32, 5-[o-hydroxy-N-(biphenyl-2-yl)benzamido]valeric acid]",LD50 at 336 h,"[3]; mouse, Table IV",> 200 mg/kg
same,selectivity ratio,[5]; [9],> 20
same,ED50,stomach ulcer; Table IV,< 10 mg/kg
"COc1ccc(N(CCCC(=O)O)C(=O)c2ccc(Cl)cc2)cc1-c1ccccc1 [Serial No. 35, 4-[p-chloro-N-(6-methoxybiphenyl-3-yl)benzamido]butyric acid]",ED50,pancreatic secretion; [7],1.5 mg/kg
same,selectivity ratio,[4]; [8],80
same,LD50 at 336 h,"[3]; mouse, Table IV",120 mg/kg
same,selectivity ratio,[5]; [9],> 12
same,ED50,stomach ulcer; Table IV,< 10 mg/kg
"O=C(O)CCCN(C(=O)c1ccc(Cl)cc1)c1cccc2ccccc12 [Serial No. 38, 4-{p-chloro-[N(α-naphthyl)]benzamido}butyric acid]",ED50,pancreatic secretion; [10],2.5 mg/kg
same,selectivity ratio,[4]; [11],56
same,ED25,liver damage by CCl4,~5 mg/kg
same,ED50,liver damage by CCl4,40 mg/kg
same,selectivity ratio,[1]; [12],~28
same,selectivity ratio,[1]; [13],3.5
same,"Glucose formation, % change",[2]; [14],-48%
same,ED50 inhibition of formation of glucose from lactate and pyruvate,[2]; Table XIII,81 µg/mL
same,LD50 at 336 h,"[3]; mouse i.p., Table X",140 mg/kg
"O=C(O)CCCN(C(=O)c1ccc(Cl)cc1Cl)c1cccc2ccccc12 [Serial No. 41, 4-{2,4-dichloro-[N-(α-naphthyl)]benzamido}butyric acid]",ED50,pancreatic secretion; [10],7.5 mg/kg
same,selectivity ratio,[4]; [11],32
same,ED25,liver damage by CCl4,10 mg/kg
same,ED50,liver damage by CCl4,26 mg/kg
same,selectivity ratio,[1]; [12],24
same,selectivity ratio,[1]; [13],9.2
same,LD50 at 336 h,"[3]; mouse i.p., Table X",240 mg/kg
"COc1ccc(Cl)cc1C(=O)N(CCCC(=O)O)c1cccc2ccccc12 [Serial No. 44, 4-{5-chloro-2-methoxy-[N-(α-naphthyl)]benzamido}butyric acid]",ED50,pancreatic secretion; [10],< 1 mg/kg
same,selectivity ratio,[4]; [11],> 270
same,ED25,liver damage by CCl4,~30 mg/kg
same,selectivity ratio,[1]; [12],~9
same,LD50 at 336 h,"[3]; mouse i.p., Table X",270 mg/kg
"COc1ccc2cccc(N(CCCC(=O)O)C(=O)c3ccc(Cl)cc3)c2c1 [Serial No. 46, 4-{p-chloro-[N-(7-methoxy-1-naphthyl)]benzamido}butyric acid]",ED50,pancreatic secretion; [10],0.3 mg/kg
same,selectivity ratio,[4]; [11],400
same,ED25,liver damage by CCl4,7 mg/kg
same,ED50,liver damage by CCl4,16 mg/kg
same,selectivity ratio,[1]; [12],17.1
same,selectivity ratio,[1]; [13],7.5
same,LD50 at 336 h,"[3]; mouse i.p., Table X",120 mg/kg
"O=C(O)CCCCN(C(=O)c1ccc(Cl)cc1)c1cccc2ccccc12 [Serial No. 47, 5-{p-chloro-[N-(α-naphthyl)]benzamido}valeric acid]",ED50,pancreatic secretion; [10],2 mg/kg
same,selectivity ratio,[4]; [11],85
same,"Glucose formation, % change",[2]; [14],-86%
same,ED50 inhibition of formation of glucose from lactate and pyruvate,[2]; Table XIII,31 µg/mL
same,LD50 at 336 h,"[3]; mouse i.p., Table X",170 mg/kg
CC1(C)[C@@H](OC(=O)CCC(=O)O)CC[C@]2(C)[C@H]3C(=O)C=C4[C@@H]5C[C@@](C)(C(=O)O)CC[C@]5(C)CC[C@@]4(C)[C@]3(C)CC[C@@H]12 [compound 19],LD50 at 336 h,"[3]; mouse, Table IV",120 mg/kg
same,selectivity ratio,[5]; [9],2.4
same,ED50,stomach ulcer; Table IV,50 mg/kg
O=C(O)CCCCCN(C(=O)c1ccc(Cl)cc1)c1cccc2ccccc12 [compound 48],ED50,pancreatic secretion; [10],~1 mg/kg
same,selectivity ratio,[4]; [11],~160
same,ED25,liver damage by CCl4,~7 mg/kg
same,selectivity ratio,[1]; [12],~22.9
same,LD50 at 336 h,"[3]; mouse i.p., Table X",160 mg/kg
CC(=O)N(CCCC(=O)O)C1CCCc2ccccc21 (stereo not drawn) [compound 49],ED50,pancreatic secretion; [10],~5 mg/kg
same,selectivity ratio,[4]; [11],≥ 40
same,ED25,liver damage by CCl4,< 10 mg/kg
same,selectivity ratio,[1]; [12],> 20
same,LD50 at 336 h,"[3]; mouse i.p., Table X",> 200 mg/kg
CC(C)C(=O)N(CCCCC(=O)O)c1cccc2ccccc12 [compound 51],LD50 at 336 h,"[3]; mouse i.p., Table IX",> 200 mg/kg
same,selectivity ratio,[5]; [15],~20
same,ED50,stomach ulcer; Table IX,< 10 mg/kg
O=C(O)CCCCN(C(=O)c1ccc(Cl)cc1)c1ccc2c(c1)CCC2 [compound 54],LD50 at 336 h,"[3]; mouse i.p., Table IX",160 mg/kg
same,selectivity ratio,[5]; [15],≤ 16
same,ED50,stomach ulcer; Table IX,≥ 10 mg/kg
